Key:
[1] = target: T1, neuropilin-1 (NP-1) (Homo sapiens, UniProt O14786); experiment: 125I-VEGF-A165 binding; conditions: assay not given; 125I-VEGF-A165 binding is the only concentration-response binding method described
T1 construct: expressed in transfected cells; host or cells: porcine aortic endothelial cells (PAE/NP-1), hygromycin B selection
Method: Porcine aortic endothelial cells expressing neuropilin-1 (PAE/NP-1) were cultured in Ham's F12 medium containing 10% fetal bovine serum (FBS) and 25 μg/ml hygromycin B. PAE cells expressing KDR (PAE/KDR) were grown in Ham's F12 medium containing 10% FBS and 250 μg/ml […] G418. Human carcinoma cell lines (DU145, A549 and ACHN) were grown in RPMI 1640 medium containing 10% FBS and L-glutamine.
Confluent cells in 24-well plates were washed twice with phosphate-buffered saline (PBS). At 4° C. various concentrations of peptides or peptidomimetics diluted in binding medium (Dulbecco's modified Eagle's medium, 25 mM HEPES pH 7.3 containing 0.1% BSA) were added, followed by addition of 0.1 nM of ^125I-VEGF-A165 (1200-1800 Ci/mmol, GE Healthcare). After 2 h of incubation at 4° C., the medium was aspirated and washed 4 times with cold PBS. The cells were lysed with 0.25 M NaOH, 0.5% SDS solution, and the bound radioactivity of the lysates was measured in a γ counter. Non-specific binding was determined in the presence of 100-fold excess unlabelled VEGF-A165.

[2] = test system: A549 cells; experiment: Cell viability (XTT); type: cell-based, Human; conditions: concentration of 100 μM
Method: Human carcinoma cell lines (DU145, A549 and ACHN) were grown in RPMI 1640 medium containing 10% FBS and L-glutamine. Cell Viability Cell viability was determined by measurement of conversion of the tetrazolium salt XTT to form formazon dye. Carcinoma cells were seeded at a density of 4×10^3 cells per well in 96-well plates in the absence or presence of NP-1 peptide or peptidomimetic antagonists. After 44 h incubation, XTT labelling reagent mixture (Roche) was added to the cultures and they were incubated for a further 4 h. The formazon production was then measured at A490 nm with a reference wavelength at 595 nm.

T1 sequence (O14786 22-923): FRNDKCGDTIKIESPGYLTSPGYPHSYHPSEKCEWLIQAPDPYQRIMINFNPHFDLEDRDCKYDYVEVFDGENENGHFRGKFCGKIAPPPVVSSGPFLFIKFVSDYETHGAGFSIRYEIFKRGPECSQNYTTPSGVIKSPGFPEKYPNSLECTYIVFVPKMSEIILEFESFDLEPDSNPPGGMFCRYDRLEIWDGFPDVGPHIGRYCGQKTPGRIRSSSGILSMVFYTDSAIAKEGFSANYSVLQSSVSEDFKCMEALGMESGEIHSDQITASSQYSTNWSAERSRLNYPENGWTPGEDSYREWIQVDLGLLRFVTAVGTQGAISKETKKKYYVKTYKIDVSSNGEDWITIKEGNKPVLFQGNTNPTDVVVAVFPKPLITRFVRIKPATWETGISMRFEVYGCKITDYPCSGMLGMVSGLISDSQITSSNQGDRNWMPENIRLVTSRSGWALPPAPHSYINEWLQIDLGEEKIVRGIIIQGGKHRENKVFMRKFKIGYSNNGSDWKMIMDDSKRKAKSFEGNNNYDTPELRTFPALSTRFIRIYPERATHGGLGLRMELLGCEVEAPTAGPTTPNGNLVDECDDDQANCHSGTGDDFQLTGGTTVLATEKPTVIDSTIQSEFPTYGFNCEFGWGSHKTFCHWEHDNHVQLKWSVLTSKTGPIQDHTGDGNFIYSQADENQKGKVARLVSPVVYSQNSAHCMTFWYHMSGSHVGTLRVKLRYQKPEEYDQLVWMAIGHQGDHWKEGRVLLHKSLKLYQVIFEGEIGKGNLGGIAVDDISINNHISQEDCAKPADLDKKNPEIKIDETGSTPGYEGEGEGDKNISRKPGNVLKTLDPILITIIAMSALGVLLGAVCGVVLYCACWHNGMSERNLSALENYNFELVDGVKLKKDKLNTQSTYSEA

`N=C(N)NCCC[C@H](NC(=O)c1sccc1NS(=O)(=O)c1cccc2nsnc12)C(=O)O` [EG00229, (S)-2-{[3-(Benzo[1,2,5]thiadiazole-4-sulfonylamino)-thiophene-2-carbonyl]-amino}-5-guanidino-pentanoic acid] was tested, and the IC50 [1] was less than 20 µM and the “viability of A549 cells” value [2] was “reduced the viability”.

From patent publication US8158789B2, “Arginine derivatives with NP-I antagonistic activity” (Ark Therapeutics Group Ltd., priority 2006, dated 2012)
